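Cultured in 96-well plates, cells were exposed to test compound for 48 hours across five concentrations. Abbreviation: GI50, concentration required for 50% inhibition of growth. The concentration for full growth arrest is given as TGI.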 A value given as a limit tells only on which side of the number the result lay.

Holding throughout (assay): NCI-60 cell line screen, 48 h
In assay [1] the test system is ACHN renal.
For assay [2], the system named is HL-60(TB) leukemia.
The test system of assay [3] is A498 renal.
Assay [4] deals with 786-0 renal.
Assay [5] concerns RXF 393 renal.
The subject of assay [6] is SK-OV-3 ovarian.
Assay [7] deals with OVCAR-4 ovarian.
The subject of assay [8] is M14 melanoma.
In assay [9] the test system is NCI-H23 lung.
The subject of assay [10] is MOLT-4 leukemia.

As to `CC/C=C\C[C@H](O)C/C=C1/C(=O)C=C[C@@H]1C/C=C\CCCCO`, the GI50 is 1.8 µM in assay [1]; 2.29 µM in assay [2]; 16.8 µM in assay [3]; 1.91 µM in assay [4]; 2.25 µM in [5]; 5.08 µM in [6]. In addition, the GI50 is 3.55 µM in [7], 2.06 µM in assay [8], 2.26 µM in [9] and 2.65 µM in [10]. Further, the TGI in assay [1] was 3.66 µM; in assay [2], 6.88 µM; in assay [3], 32.5 µM; in [4], 3.77 µM; in assay [5], 4.18 µM; in assay [6], 29.2 µM. The TGI in [7] amounted to 18.7 µM; in assay [8], 6.17 µM; in [9] it was 5.95 µM; in assay [10] it was 11.1 µM.
Consider `COc1cc(C2CC(=O)Nc3c2c(C)nn3-c2nc3ccccc3[nH]2)cc(OC)c1O` (stereo not given), for which the GI50 in [1] was 3.11 µM; in assay [2] it was 3.05 µM; in assay [3] it was 1.86 µM; in [4] it was 3.01 µM; in assay [5] it was 2.17 µM; in [6] it was 2.7 µM. Besides, the GI50 in assay [7] was 2.43 µM; in assay [8] it was 2.12 µM; in assay [9] it was 3.15 µM; in assay [10] it was 0.0427 µM. The TGI in [1] is above 28.6 µM; in assay [2] it was 16.8 µM; in assay [3], 6.1 µM; in assay [4], 9.39 µM; in [5] it was 5.14 µM; in assay [6], 5.9 µM. In addition, the TGI in [7] was determined as 11.4 µM; in assay [8] it was 5.53 µM; in assay [9] it was 11.2 µM; in assay [10] it was 0.242 µM.
In the case of `CC(=O)N[C@@H](Cc1ccc(OP(=O)(O)O)cc1)C(=O)N[C@H]1CCC(=O)N2CCC[C@@H](C(=O)NCc3ccccc3)N2C1=O`, the GI50 in [1], in assay [2], in assay [3], in assay [4], in assay [5] and in [6] was above 25 µM throughout. In addition, the GI50 in assay [7], in [8], in assay [9] and in assay [10] was above 25 µM in each case. Besides, the TGI in assay [1], in [2], in [3], in assay [4], in assay [5] and in assay [6] was above 25 µM each time. Further, the TGI in assay [7], in assay [8], in [9] and in assay [10] was above 25 µM in each case.
For the compound `COC(=O)c1oc2c(C(=O)/C=C/c3ccc(OC)cc3)c(OCCN3CCOCC3)ccc2c1C`, the GI50 was 1.73 µM in assay [1]; 1.44 µM in assay [2]; 2.04 µM in [3]; 1.77 µM in [4]; 0.0487 µM in [5]; 2.92 µM in assay [6]. In addition, the GI50 is 2.48 µM in assay [7], 3.11 µM in assay [8], 1.91 µM in assay [9] and 1.24 µM in [10]. Further, the TGI amounted to 3.62 µM in assay [1]; 4.29 µM in assay [2]; 4.69 µM in assay [3]; 4.1 µM in assay [4]; 0.493 µM in assay [5]; 8.61 µM in assay [6]. Besides, the TGI was above 44.2 µM in assay [7], 12.1 µM in assay [8], 5.46 µM in [9] and 3.72 µM in assay [10].
For the compound `COc1cc(O)c2c(c1)C(=O)C1=C(C2=O)C(O)C[C@@](C)(O)C1` (stereo not given in full), the TGI in assay [1] came out at 4.46 µM; in [2] it was 1.5 µM; in assay [3], 3.29 µM; in [4] it was 9.25 µM; in assay [5], 3.05 µM; in [6] it was 17.1 µM. Besides, the TGI in [7] is 3.01 µM; in assay [8], 2.02 µM; in assay [9], 3.3 µM; in [10] it was 7.63 µM.
As for `CNC(=O)c1cccc(C#Cc2cncnc2Nc2ccc(OCc3cccc(F)c3)c(Cl)c2)c1`, the GI50 was 4.18 µM in assay [1]; above 25 µM in [2]; 1.84 µM in [3]; 6.33 µM in assay [4]; 2.91 µM in assay [5]; 3.19 µM in [6]. The GI50 was 4.23 µM in [7], 10.7 µM in [8], 7.5 µM in assay [9] and above 25 µM in [10]. The TGI in assay [1] is 24.9 µM; in [2] it was above 25 µM; in assay [3], 10.9 µM; in assay [4], above 25 µM; in assay [5], 11.7 µM; in [6], 12.7 µM. In addition, the TGI in assay [7] is 12.3 µM; in [8] it was above 25 µM; in [9] it was 24.2 µM; in [10], above 25 µM.
For the compound `Cc1ccccc1C(C(=O)NC1CCCCC1)N(C(=O)CNc1ccc(C#N)cc1)c1cccc(F)c1` (stereo not given), the GI50 was 11.7 µM in assay [1]; above 70.5 µM in assay [2]; 24 µM in [3]; 17.3 µM in assay [4]; 1.84 µM in assay [5]; 12.9 µM in [6]. Also, the GI50 in [7] was 9.34 µM; in [8] it was 80.9 µM; in assay [9], 25.1 µM; in assay [10], above 100 µM. In addition, the TGI in assay [1] was above 100 µM; in assay [2], above 100 µM; in assay [3], 74.4 µM; in assay [4] it was above 67.9 µM; in assay [5] it was 5.6 µM; in assay [6] it was 52.8 µM. In addition, the TGI is above 71.6 µM in assay [7], above 100 µM in assay [8], above 77.6 µM in [9] and above 100 µM in [10].
Take `O=c1oc2ccc(Br)cc2c(=O)n1-c1ccc(Cl)cc1F`: the GI50 in assay [1] was 1.22 µM; in assay [2], 1.12 µM; in assay [3], 0.194 µM; in [4] it was 2.38 µM; in assay [5], 1.05 µM; in [6], 0.672 µM. Besides, the GI50 in [7] was 0.887 µM; in assay [8] it was 0.925 µM; in [9], 1.03 µM; in assay [10] it was 1.7 µM. Further, the TGI is 12.9 µM in assay [1]; 4.96 µM in assay [2]; 0.772 µM in assay [3]; 7.11 µM in [4]; 4.47 µM in assay [5]; 4.48 µM in assay [6]. The TGI in [7] amounted to 28.1 µM; in assay [8], 6.24 µM; in assay [9], 4.77 µM; in assay [10] it was 5.22 µM.
On to `CCCCCCCCCCOC(=O)NCCC`, for which the TGI is above 100 µM in assay [1]; 32.7 µM in assay [2]; above 100 µM in assay [3]; above 100 µM in assay [4]; 39.9 µM in [5]; above 100 µM in [6]. In addition, the TGI in assay [7] was above 100 µM; in assay [8], above 100 µM; in [9], above 100 µM; in [10], 43.6 µM.
`CN(C)CCOc1ccccc1NC1=C(Cl)C(=O)C(Nc2ccccc2OCCN(C)C)=C(Cl)C1=O`: the GI50 is 0.494 µM in assay [1]; 0.658 µM in assay [2]; above 38.2 µM in assay [3]; 1.64 µM in assay [4]; 3.93 µM in assay [5]; above 47.7 µM in assay [6]. Also, the GI50 in assay [7] is 0.473 µM; in assay [8], above 27 µM; in assay [9], 6.47 µM; in assay [10], 0.694 µM. Also, the TGI in [1] is 1.6 µM; in [2] it was 2.06 µM; in assay [3], above 53.8 µM; in assay [4], 5.92 µM; in assay [5] it was 10.4 µM; in assay [6], above 83.1 µM. Further, the TGI is 0.896 µM in assay [7], above 84.6 µM in [8], 22.6 µM in [9] and 1.91 µM in assay [10].
Consider `Oc1ccccc1/C=N\NC(=S)N/N=C/c1ccccc1O`, for which the GI50 in assay [1] is 1.77 µM; in [2], 2.04 µM; in [3], 3.66 µM; in [4], 3.49 µM; in [5], 5.72 µM; in assay [6], 4.28 µM. For the same compound, the GI50 in assay [7] is 0.64 µM; in [8], 1.63 µM; in [9], 3.91 µM; in assay [10], 1.43 µM. In addition, the TGI in assay [1] is above 100 µM; in [2], 14.6 µM; in assay [3] it was 21.9 µM; in [4], 20 µM; in assay [5] it was above 100 µM; in assay [6], above 100 µM. For the same compound, the TGI is 46.7 µM in assay [7], 6.33 µM in assay [8], above 100 µM in [9] and 22.4 µM in assay [10].
On to `O=C(O)CN(c1ccc(F)cc1)S(=O)(=O)c1ccccc1`, for which the TGI in assay [1], in [2], in assay [3], in [4], in assay [5] and in assay [6] was above 100 µM each time. Besides, the TGI in assay [7], in assay [8], in assay [9] and in assay [10] was above 100 µM throughout.
For `COc1ccc(-c2cn(-c3cc(OC)c(OC)c(OC)c3)c(=O)[nH]2)cc1OC`, the GI50 in [1] was above 100 µM; in assay [2] it was above 100 µM; in assay [3], 80.3 µM; in [4], above 100 µM; in assay [5], above 100 µM; in [6], above 100 µM. The GI50 in assay [7], in assay [8], in [9] and in assay [10] was above 100 µM each time. Besides, the TGI in [1], in assay [2], in assay [3], in [4], in assay [5] and in assay [6] was above 100 µM each time. Further, the TGI in [7], in assay [8], in assay [9] and in assay [10] was above 100 µM in each case.
As to `COc1cc(/C=C/C(=O)c2c(-c3ccc(F)cc3)nc3sc(C)nn23)cc(OC)c1OC`, the GI50 in assay [1] was 1.93 µM; in [2] it was 2.44 µM; in assay [3] it was 2.3 µM; in [4], 3.31 µM; in assay [5] it was 2.11 µM; in [6], 2.99 µM. For the same compound, the GI50 is 3.61 µM in assay [7], 3.05 µM in [8], 2.98 µM in assay [9] and 2.3 µM in assay [10]. The TGI in assay [1] was 4.6 µM; in [2], 6.17 µM; in [3] it was 7.23 µM; in [4], 10.6 µM; in assay [5], 6.66 µM; in assay [6], 8.91 µM. In addition, the TGI in assay [7] came out at 85.6 µM; in assay [8] it was 8.1 µM; in assay [9] it was 9.55 µM; in assay [10], 6.72 µM.
Consider `NC(=O)c1cc(Br)ccc1NC(=O)/C=C/c1ccccc1`, for which the GI50 is 6.45 µM in [1]; 0.876 µM in assay [2]; 1.66 µM in assay [3]; 3.72 µM in assay [4]; 1.15 µM in assay [5]; 3.68 µM in assay [6]. The GI50 is 8.85 µM in assay [7], 1.96 µM in assay [8], 10.8 µM in [9] and 4.02 µM in assay [10]. The TGI in [1] was above 100 µM; in assay [2], 4.11 µM; in [3] it was 11.7 µM; in [4] it was above 34.8 µM; in assay [5], 5.9 µM; in assay [6], above 23.6 µM. The TGI was above 100 µM in [7], above 100 µM in assay [8], above 100 µM in assay [9] and above 53.9 µM in assay [10].
As to `Cn1cc(C2=C(c3cn(CCCCCO)c4ccccc34)C(=O)NC2=O)c2ccccc21`, the GI50 in assay [1] was 6.82 µM; in assay [2], 4.08 µM; in assay [3], 4.18 µM; in assay [4] it was 5.81 µM; in [5], 3.51 µM; in assay [6], 4.92 µM. Further, the GI50 in assay [7] was 5.11 µM; in assay [8] it was 5.38 µM; in assay [9], 5.34 µM; in [10], 4.71 µM. Moreover, the TGI in assay [1] was 24.8 µM; in [2] it was 11.5 µM; in assay [3] it was 14.3 µM; in assay [4] it was above 21.5 µM; in [5], 9.61 µM; in assay [6], 17.8 µM. For the same compound, the TGI is 17.5 µM in assay [7], above 25 µM in [8], 16.5 µM in [9] and 16.6 µM in assay [10].

For the origin of these results see PubChem BioAssay (NCI).
